The values below come from PubChem BioAssay (NCI).

SMILES strings stand for the structures. Several values for one entry are separate records, joined by “and”; a condition that tells them apart may be missing. Equal entries are not always repeated.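 Following 48 hours of exposure in 96-well plates, responses at five concentrations were used to interpolate endpoints linearly. Here, GI50 denotes the concentration required for 50% inhibition of growth. The concentration for full growth arrest is given as TGI.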

Among the test systems are CAKI-1 renal; HOP-62 NSCLC; HOP-92 NSCLC; MDA-MB-231 breast; NCI-H460 lung; NCI-H522 lung; RXF 393 renal; SF-539 CNS; SR leukemia; SW-620 colon.
Common to all, as to assay: NCI anticancer screen, dose series, 48 h

On to `Cc1nc2ccccn2c1NC(=O)NNC(=S)Nc1ccc(F)cc1`, for which the GI50 in the experiment on CAKI-1 renal, in the experiment with HOP-62 NSCLC, with HOP-92 NSCLC, with MDA-MB-231 breast, with NCI-H460 lung and in the experiment on NCI-H522 lung was above 100 µM in each case. Besides, the GI50 is above 100 µM in the experiment on RXF 393 renal, above 100 µM with SF-539 CNS, 19.5 µM in the experiment with SR leukemia and above 100 µM in the experiment with SW-620 colon. Moreover, the TGI in the experiment with CAKI-1 renal, in the experiment on HOP-62 NSCLC, in the experiment on HOP-92 NSCLC, in the experiment with MDA-MB-231 breast, with NCI-H460 lung and in the experiment with NCI-H522 lung was above 100 µM each time. For the same compound, the TGI with RXF 393 renal, with SF-539 CNS, in the experiment with SR leukemia and with SW-620 colon was above 100 µM throughout.
For the compound `O=C1C(=O)c2ccccc2C(O)=C1CCCc1ccc(C2CCCCC2)cc1`, the GI50 was 2.02 µM in the experiment with CAKI-1 renal; 7.2 µM with HOP-62 NSCLC; 1.71 µM with HOP-92 NSCLC; 10.4 µM in the experiment with MDA-MB-231 breast; 2.78 µM with NCI-H460 lung; 7.69 µM in the experiment on NCI-H522 lung. The GI50 was 11.5 µM in the experiment on RXF 393 renal, 5.78 µM with SF-539 CNS, 2.44 µM with SR leukemia and 4.36 µM with SW-620 colon. For the same compound, the TGI was 6.51 µM in the experiment on CAKI-1 renal; 23 µM in the experiment with HOP-62 NSCLC; 24 µM in the experiment on HOP-92 NSCLC; 31 µM with MDA-MB-231 breast; 10.3 µM in the experiment with NCI-H460 lung; above 100 µM in the experiment with NCI-H522 lung. For the same compound, the TGI turned out to be 26.8 µM in the experiment with RXF 393 renal, 28.7 µM in the experiment on SF-539 CNS, 31 µM in the experiment on SR leukemia and 19.5 µM in the experiment with SW-620 colon.
For the compound `Cc1c(N)nc(C(CC(N)=O)NCC(N)C(N)=O)nc1C(=O)NC(C(=O)NC(C)C(O)C(C)C(=O)NC(C(=O)NCCc1nc(-c2nc(C(=O)NCCCNC(C)c3ccccc3)cs2)cs1)C(C)O)C(OC1OC(CO)C(O)C(O)C1OC1OC(CO)C(O)C(OC(N)=O)C1O)c1cnc[nH]1` (configuration not stated), the GI50 with CAKI-1 renal was 2 µM; in the experiment with HOP-62 NSCLC, 0.0845 µM; with HOP-92 NSCLC, 0.227 µM; in the experiment on MDA-MB-231 breast, above 100 µM; in the experiment with NCI-H460 lung, 0.391 µM; in the experiment on NCI-H522 lung, 4.1 µM. The GI50 with SF-539 CNS was 0.0376 µM; in the experiment with SR leukemia it was 50.3 µM; with SW-620 colon it was 24.8 µM. In addition, the TGI with HOP-62 NSCLC is 1.07 µM and 3.01 µM; with HOP-92 NSCLC, 3.51 µM and 25.8 µM; with MDA-MB-231 breast, above 100 µM; in the experiment with NCI-H522 lung, 20 µM and 44.3 µM; with RXF 393 renal, 2.82 µM; in the experiment on SF-539 CNS, 0.476 µM and 0.681 µM. In addition, the TGI was 50 µM and > 100 µM in the experiment with SR leukemia; 50 µM and > 100 µM with SW-620 colon.
Turning to `CC(=O)O[C@H]1C(=O)[C@@]2(C)[C@H]([C@H](OC(=O)c3ccccc3)[C@]3(O)C[C@H](OC(=O)[C@H](OC(=O)OC[C@H]4COC(C)(C)O4)[C@@H](NC(=O)c4ccccc4)c4ccccc4)C(C)=C1C3(C)C)[C@]1(OC(C)=O)CO[C@@H]1C[C@@H]2O`, the GI50 was 0.0885 µM with CAKI-1 renal; 0.0596 µM in the experiment with HOP-62 NSCLC; 0.0519 µM in the experiment with HOP-92 NSCLC; 0.0736 µM in the experiment with MDA-MB-231 breast; 0.00601 µM in the experiment with NCI-H460 lung; 0.0324 µM in the experiment with NCI-H522 lung. The GI50 with RXF 393 renal is 0.0307 µM; in the experiment with SF-539 CNS it was 0.0579 µM; with SR leukemia it was 0.0126 µM; with SW-620 colon, 0.0138 µM. In addition, the TGI was above 33.3 µM in the experiment with CAKI-1 renal; above 33.3 µM in the experiment on HOP-62 NSCLC; above 33.3 µM in the experiment with HOP-92 NSCLC; above 7.74 µM in the experiment on MDA-MB-231 breast; above 33.3 µM in the experiment with NCI-H460 lung; above 33.3 µM with NCI-H522 lung. Further, the TGI with RXF 393 renal was 0.201 µM; in the experiment on SF-539 CNS it was 16.7 µM; in the experiment with SR leukemia it was above 33.3 µM; with SW-620 colon, above 33.3 µM.
Turning to `CC(=O)OC12c3ccccc3-c3ccccc3C1C(C(=O)O)C2C(=O)O` (configuration not stated), the TGI with CAKI-1 renal, with HOP-62 NSCLC, in the experiment with HOP-92 NSCLC, with MDA-MB-231 breast, with NCI-H460 lung and in the experiment on NCI-H522 lung was above 10 µM in each case. The TGI in the experiment on RXF 393 renal, in the experiment on SF-539 CNS, in the experiment on SR leukemia and in the experiment with SW-620 colon was above 10 µM throughout.
For the compound `Nc1nc2cc(CC[C@H]3C[C@@H](n4ccc5c(N)ncnc54)[C@H](O)[C@@H]3O)ccc2cc1Br`, the GI50 in the experiment on CAKI-1 renal was 4.38 µM; with HOP-62 NSCLC, 8.91 µM; in the experiment on HOP-92 NSCLC, 6.66 µM; in the experiment on MDA-MB-231 breast, 11.1 µM; in the experiment on NCI-H460 lung, 10.9 µM; with NCI-H522 lung, 9.26 µM. Moreover, the GI50 is 6.95 µM in the experiment with RXF 393 renal, 13.2 µM in the experiment on SF-539 CNS, 18.7 µM in the experiment on SR leukemia and 13.3 µM in the experiment with SW-620 colon. Moreover, the TGI turned out to be 21.9 µM in the experiment on CAKI-1 renal; 24.2 µM in the experiment on HOP-62 NSCLC; 39.9 µM in the experiment with HOP-92 NSCLC; 24.4 µM in the experiment with MDA-MB-231 breast; 26.5 µM with NCI-H460 lung; 28.8 µM with NCI-H522 lung. Besides, the TGI in the experiment with RXF 393 renal was 22.9 µM; in the experiment on SF-539 CNS, 27.6 µM; in the experiment on SR leukemia, above 100 µM; in the experiment on SW-620 colon, 27.7 µM.
Consider `Cn1nc(C(F)(F)F)c(-c2cc(C(F)(F)F)cc(C(F)(F)F)c2)c1-c1ccc(OCc2ccc(Cl)cc2)cc1O`, for which the GI50 was 2.11 µM in the experiment on CAKI-1 renal; 2.82 µM with HOP-62 NSCLC; 1.63 µM in the experiment with HOP-92 NSCLC; 2.15 µM in the experiment with MDA-MB-231 breast; 2.16 µM in the experiment on NCI-H460 lung; 1.94 µM in the experiment on NCI-H522 lung. The GI50 in the experiment with RXF 393 renal was 2.32 µM; in the experiment with SF-539 CNS, 2.1 µM; in the experiment on SR leukemia, 1.79 µM; in the experiment on SW-620 colon, 3 µM. Also, the TGI came out at 5.9 µM in the experiment with CAKI-1 renal; 8.57 µM in the experiment on HOP-62 NSCLC; 5.07 µM in the experiment on HOP-92 NSCLC; 5.69 µM in the experiment with MDA-MB-231 breast; 5.5 µM with NCI-H460 lung; 9.16 µM with NCI-H522 lung. Besides, the TGI is 6.76 µM in the experiment with RXF 393 renal, 5.94 µM in the experiment on SF-539 CNS, 7.51 µM with SR leukemia and 11 µM in the experiment on SW-620 colon.
In the case of `N#C/C(=N\Nc1ccccc1)C(=O)Nc1cc(-c2ccccc2)nn1-c1ccccc1`, the GI50 is 2.88 µM in the experiment on CAKI-1 renal; 2.84 µM in the experiment with HOP-62 NSCLC; 0.181 µM in the experiment on HOP-92 NSCLC; 3.34 µM with MDA-MB-231 breast; 2.72 µM with NCI-H460 lung; 2.06 µM in the experiment with NCI-H522 lung. The GI50 in the experiment with RXF 393 renal is 2.26 µM; in the experiment on SF-539 CNS, 3.3 µM; in the experiment with SR leukemia, 5.19 µM; in the experiment on SW-620 colon, 3.15 µM. Moreover, the TGI with CAKI-1 renal is above 100 µM; with HOP-62 NSCLC, 49.9 µM; in the experiment on HOP-92 NSCLC, 2.58 µM; in the experiment on MDA-MB-231 breast it was above 100 µM; in the experiment on NCI-H460 lung it was 22.1 µM; in the experiment with NCI-H522 lung, 12.6 µM. Besides, the TGI was 7.69 µM with RXF 393 renal, 19.7 µM with SF-539 CNS, above 100 µM in the experiment on SR leukemia and above 100 µM in the experiment with SW-620 colon.
With `CCCCCC[C@@H](C)NC(=O)c1ccc(Nc2nc3ccccc3c3occc23)cc1`, the GI50 with CAKI-1 renal is 2.82 µM; in the experiment on HOP-62 NSCLC, 3.28 µM; in the experiment with HOP-92 NSCLC, 1.99 µM; in the experiment on MDA-MB-231 breast it was 10.2 µM; in the experiment on NCI-H460 lung, 3.87 µM; with NCI-H522 lung it was 1.31 µM. Further, the GI50 with RXF 393 renal is 3.41 µM; in the experiment with SF-539 CNS, 2.07 µM; in the experiment with SR leukemia, 18.9 µM; with SW-620 colon, 3.38 µM. Besides, the TGI in the experiment on CAKI-1 renal was 28.3 µM; in the experiment with HOP-62 NSCLC it was 27.7 µM; in the experiment on HOP-92 NSCLC, 7.91 µM; in the experiment on MDA-MB-231 breast, above 100 µM; with NCI-H460 lung it was above 100 µM; with NCI-H522 lung it was 4.54 µM. Moreover, the TGI in the experiment on RXF 393 renal was 9.84 µM; in the experiment on SF-539 CNS it was 5.29 µM; in the experiment with SR leukemia, 45.5 µM; in the experiment with SW-620 colon, above 100 µM.
